{
  "source": "patent US20070149916A1",
  "about": "“Dry matrices as drug reservoirs in electrotransport applications” (ALZA CORPORATION, priority 2005, published 2007)",
  "key": {"[1]": {"assay": "Stability of hydrocortisone hemisuccinate in PVOH hydrogels and PEO matrices (HPLC)", "assay_type": "physicochemical", "experimental": "The stability of hydrocortisone hemisuccinate (HCHS), a hydrolytically unstable compound that forms hydrocortisone and succinic acid via hydrolysis, in PVOH hydrogels and PEO matrices was investigated.\nIn a separate set of experiments (FIGS. 3A and 3B), the stability of HCHS in PVOH hydrogels and PEO matrices was examined at 23° C. and 40° C. over a period of three days."}, "[2]": {"conditions": "aqueous solutions of apomorphine; cited from earlier work"}, "[3]": {"conditions": "transdermal electrotransport, FIGS. 5A and 5B"}, "[4]": {"assay": "Stability of apomorphine in aqueous solution and in PEO matrices", "assay_type": "physicochemical", "conditions": "PEO films cast using 2:1 acetonitrile:methanol; low formate or non-radiation crosslinked PEO; FIG. 4"}},
  "data": [
    {"compound": "hydrocortisone hemisuccinate [HCHS]", "values": [
      {"measurement": "stability of HCHS in PEO matrices vs PVOH hydrogels", "setting": "[1]; 40° C., over a period of three days, FIGS. 3A and 3B", "result": "Improved stability"},
      {"measurement": "stability of HCHS in PEO matrix compared with PVOH hydrogel (HPLC chromatogram)", "setting": "[1]; PEO film made using acetonitrile as the solvent vs PVOH hydrogel, FIG. 2", "result": "more stable in the PEO matrix than in the PVOH hydrogel"}
    ]},
    {"compound": "CN1CCc2cccc3c2[C@H]1Cc1ccc(O)c(O)c1-3", "note": "[apomorphine]", "values": [
      {"measurement": "time to rapid oxidation in aqueous solutions", "setting": "[2]", "result": "less than 30 minutes"},
      {"measurement": "in vitro flux in PEO films compared with PVOH hydrogels", "setting": "[3]", "result": "comparable"},
      {"measurement": "time over which formulations containing PEO were stable", "setting": "[4]", "result": "up to 4 weeks"}
    ]}
  ]
}
